{"source": "ChEMBL document CHEMBL4431372", "about": "“Optimization of a Fragment-Based Screening Hit toward Potent DOT1L Inhibitors Interacting in an Induced Binding Pocket” (ACS Med Chem Lett, 2016)"}
{"target": "T1, Histone-lysine N-methyltransferase, H3 lysine-79 specific (Homo sapiens, UniProt Q8TEK3)", "T1 sequence (Q8TEK3 whole entry, the tested form may be a part)": "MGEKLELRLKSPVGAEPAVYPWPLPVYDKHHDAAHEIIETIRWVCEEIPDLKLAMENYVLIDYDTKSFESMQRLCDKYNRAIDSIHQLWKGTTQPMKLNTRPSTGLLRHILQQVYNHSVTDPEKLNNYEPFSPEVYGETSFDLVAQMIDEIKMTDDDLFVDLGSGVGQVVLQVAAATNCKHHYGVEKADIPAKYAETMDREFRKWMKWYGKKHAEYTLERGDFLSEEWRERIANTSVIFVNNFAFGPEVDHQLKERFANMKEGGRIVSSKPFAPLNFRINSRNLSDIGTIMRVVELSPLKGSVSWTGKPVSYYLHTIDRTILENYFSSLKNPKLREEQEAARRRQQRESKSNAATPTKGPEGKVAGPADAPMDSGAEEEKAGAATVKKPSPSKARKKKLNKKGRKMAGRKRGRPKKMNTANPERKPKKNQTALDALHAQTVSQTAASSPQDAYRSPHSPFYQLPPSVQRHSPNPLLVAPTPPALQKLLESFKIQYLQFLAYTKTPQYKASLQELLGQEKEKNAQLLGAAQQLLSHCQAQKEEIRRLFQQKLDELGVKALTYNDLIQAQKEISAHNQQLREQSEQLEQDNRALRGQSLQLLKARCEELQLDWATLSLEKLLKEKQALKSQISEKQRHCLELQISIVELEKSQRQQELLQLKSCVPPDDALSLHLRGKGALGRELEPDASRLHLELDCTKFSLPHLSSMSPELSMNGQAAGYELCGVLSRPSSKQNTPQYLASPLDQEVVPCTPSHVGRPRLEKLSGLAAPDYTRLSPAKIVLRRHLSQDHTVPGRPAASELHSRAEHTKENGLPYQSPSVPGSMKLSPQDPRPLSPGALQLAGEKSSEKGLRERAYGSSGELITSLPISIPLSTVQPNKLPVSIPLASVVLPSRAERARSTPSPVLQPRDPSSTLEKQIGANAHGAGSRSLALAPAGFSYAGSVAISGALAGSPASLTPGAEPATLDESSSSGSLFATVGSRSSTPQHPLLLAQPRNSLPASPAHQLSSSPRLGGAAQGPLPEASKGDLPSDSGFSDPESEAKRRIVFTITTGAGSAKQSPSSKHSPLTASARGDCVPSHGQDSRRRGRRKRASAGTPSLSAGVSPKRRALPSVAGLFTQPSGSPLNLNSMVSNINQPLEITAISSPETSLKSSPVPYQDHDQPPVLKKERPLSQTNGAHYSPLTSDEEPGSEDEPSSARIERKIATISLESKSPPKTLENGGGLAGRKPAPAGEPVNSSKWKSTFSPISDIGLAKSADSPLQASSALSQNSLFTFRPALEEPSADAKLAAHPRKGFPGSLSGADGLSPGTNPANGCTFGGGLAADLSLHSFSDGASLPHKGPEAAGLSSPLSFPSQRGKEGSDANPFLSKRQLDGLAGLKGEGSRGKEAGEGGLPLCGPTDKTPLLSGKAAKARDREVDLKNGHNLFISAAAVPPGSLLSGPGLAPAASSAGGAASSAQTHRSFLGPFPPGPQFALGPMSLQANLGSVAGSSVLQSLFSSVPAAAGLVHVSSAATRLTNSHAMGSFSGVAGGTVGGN", "experiment": "Binding affinity to biotinylated Avi tagged human DoT1L (2 to 416 residues) by SPR analysis", "units": {"Kd": "µM"}}
{"smiles": "CNC(=O)c1cc(C(=O)c2c(Cl)cccc2Cl)c[nH]1", "Kd": 50}
{"target": "T1, Histone-lysine N-methyltransferase, H3 lysine-79 specific", "experiment": "Inhibition of human DOTL1 (2 to 416 residues)-mediated methylation of nucleosome preincubated for 30 mins followed by addition of S-[methyl-3H-] adenosyl-L-methionine and nucleosome measured after 180 mins by scintillation proximity assay", "units": {"IC50": "µM"}}
{"smiles": "CNC(=O)c1cc(C(=O)c2c(Cl)cccc2Cl)c[nH]1", "IC50": 320}
{"smiles": "CN(c1ccc2ncccc2c1)c1c(Cl)cccc1Cl", "IC50": 98}
{"smiles": "Cc1ccc(C#CCN(c2ccc3ncnc(N)c3c2)c2c(Cl)cccc2Cl)nc1", "IC50": 0.047}
{"smiles": "Cn1cnc2ccc(N(CC#Cc3cccnc3)c3c(Cl)cccc3Cl)cc2c1=O", "IC50": 0.84}
{"smiles": "O=C(c1ccc2ncccc2c1)c1c(Cl)cccc1Cl", "IC50": 139}
{"smiles": "Nc1ncnc2ccc(N(CC#CC(O)c3nccn3CCO)c3c(Cl)cccc3Cl)cc12", "note": "(stereo unspecified)", "IC50": 0.014}
{"smiles": "C#CCN(c1ccc2ncnc(N)c2c1)c1c(Cl)cccc1Cl", "IC50": 0.92}
{"smiles": "Cc1ncc(C#CCN(c2ccc3ncn(C)c(=O)c3c2)c2c(Cl)cccc2Cl)cn1", "IC50": 0.089}
{"smiles": "COc1ccnc2ccc(N(C)c3c(Cl)cccc3Cl)cc12", "IC50": 39}
{"smiles": "CC(=O)Nc1cncc(-c2cc(C(=O)c3c(Cl)cccc3Cl)c[nH]2)c1", "IC50": 4.3}
